Like-named read-outs stand apart in the source and are kept apart here.
Legend:
IL-12 [1] = settings: bone-marrow derived dendritic cells, Egger et al., Angew. Chem. Int. Ed. 2013, cited from earlier work
Nrf2 target genes = test: qPCR expression of Nrf2 target genes in pretreated, R837-stimulated bone marrow-derived dendritic cells; format: cell-based, mouse
From the text: (§1) • Figure 1: Treatment with cyclo-EC (9) licenses dendritic cells to polarize niave CD4 T cells towards the Th2 subset. Naïve transgenic splenic CD4 T cells were co-cultured together with splenic dendritic cells that had been pre-treated either with cyclo-EC (9) (cEC) or the respective solvent control. CD4 T cells were then stimulated with the cognate antigen for 4 days. […] Shown is the percentage of IL-4 producing Th2 and IFNγ producing Th1 cells after treatment with cEC or solvent DMSO. Differences between cEC and DMSO treatments are significant as indicated by (*) using unpaired, two-tailed t tests. […] Wild type bone marrow-derived dendritic cells were pretreated with cyclo-EC (9) (cEC) or solvent control for 75 minutes before stimulation with the TLR7 (toll-like receptor 7) ligand R837 (Syed, T. A., Exp.Opin.Pharmacother. 2001, 2, 877) for an additional 3 h. Cells were then lysed, mRNA was purified, reverse transcribed and expression of Nrf2 ([…]) target genes as well as the indicated chemokine genes was determined by qPCR. Expression levels were normalized to G6PDH (glucose 6-phosphate dehydrogenase) expression. […] Cytokines in the supernatant were quantified with ELISA. • Figure 4. […] Cytokines in the supernatant were quantified with ELISA. • Figure 5. […]

IL-6 [2] = test: IL-6 secretion by bone marrow-derived dendritic cells stimulated with TLR7 agonist R837 (ELISA); format: cell-based, mouse; settings: BMDCs treated 60 minutes, then R837 for 18 h (Figures 3-5)
From the text: as §1, with “qPCR.” for “qPCR. Expression levels were normalized to G6PDH (glucose 6-phosphate dehydrogenase) expression.”
(§2) Bone marrow cells from tibia and femur were isolated ex vivo and differentiated in vitro into bone marrow derived dendritic cells (BMDC) by cultivation in the presence of 2 ng/ml carrier free recombinant mouse GM-CSF (BioLegend, 576308) in RPMI 1640 medium (GE Healthcare, E15-039) supplemented with L-glutamine (Lonza-Cambrex BioWhittaker, BE17-605E), HEPES Buffer (Lonza-Cambrex BioWhittaker, BE17-737E), peniciline/ streptomycine (Gibco Life Technologies 15140-122) and fetal bovine serum (Gibco Life Sciences 10270-106). […] Cells were then harvested, counted and seeded into 96-well flat bottom plates at 10^5 cells/well. […] Cytokine concentrations in supernatant were quantified by sandwich ELISA using the following antibody pairs: IL-6 (504502 and 504602) from BioLegend and IL-12 (14-7125-85 and 13-7123-85) from eBioscience. […] Optical density was measured using a Spectra MAX 190 device by Bucher biotec. […]

IL-6 [3] = settings: bone-marrow derived dendritic cells, Egger et al., Angew. Chem. Int. Ed. 2013, cited from earlier work
naïve CD4 T cells = test: Co-culture of compound-pretreated splenic dendritic cells with naive CD4 T cells; Th1/Th2 polarization by intracellular FACS staining; format: cell-based, C57BL/6 mice
IL-12 [4] = test: IL-12 secretion by bone marrow-derived dendritic cells stimulated with TLR7 agonist R837 (ELISA); format: cell-based, mouse; settings: BMDCs treated 60 minutes, then R837 for 18 h (Figures 3-5)
From the text: as §1, with “qPCR.” for “qPCR. Expression levels were normalized to G6PDH (glucose 6-phosphate dehydrogenase) expression.”
as §2

[5] = system: Pro-inflammatory chemokine genes: CCL1, 2, 3 and 4; test: qPCR expression of pro-inflammatory chemokine genes in pretreated, R837-stimulated bone marrow-derived dendritic cells; format: cell-based, mouse; settings: pretreated 75 minutes, then R837 for 3 h; normalized to G6PDH (Figure 2)
From the text: as §1

| SMILES | secretion of pro-inflammatory cytokine IL-12 (IL-12 [1]) | secretion of pro-inflammatory cytokine IL-12 (IL-12 [1]; listed as 8) | expression of downstream targets of Nrf2 (Nrf2 target genes; earlier experiments, quantitative PCR) | inhibition of IL-6 secretion (IL-6 [2]) | secretion of pro-inflammatory cytokine IL-6 (IL-6 [3]) | secretion of pro-inflammatory cytokine IL-6 (IL-6 [3]; listed as 8) | polarization of naïve CD4 T cells towards the Th2 subset (naïve CD4 T cells; earlier experiments, splenic dendritic cells) | inhibition of IL-12 secretion (IL-12 [4]) | expression of Nrf2 target genes (HO-1, NQO1) (Nrf2 target genes; pretreated 75 minutes, then R837 for 3 h, normalized to G6PDH (Figure 2)) | inhibition of IL-6 secretion (IL-6 [2]; listed as cEC) | pro-inflammatory chemokine expression (CCL1, 2, 3 and 4) [5] | percentage of IFNγ producing Th1 cells (naïve CD4 T cells; dendritic cells treated with 500nM for 60 minutes, co-culture 4 days with 10 nM gp61, vs solvent DMSO, p = 0.0161 (Figure 1)) | percentage of IL-4 producing Th2 cells (naïve CD4 T cells; dendritic cells treated with 500nM for 60 minutes, co-culture 4 days with 10 nM gp61, vs solvent DMSO, p = 0.039 (Figure 1)) | inhibition of IL-12 secretion (IL-12 [4]; listed as cEC) |
| --- | --- | --- | --- | --- | --- | --- | --- | --- | --- | --- | --- | --- | --- | --- |
| CCCCC/C=C\C[C@H]1C=CC(=O)/C1=C/[C@H]1O[C@@H]1CCCC(=O)O [EC (8), 4-((2R,3R)-3-((E)-((S)-2-((Z)-Oct-2-en-1-yl)-5-oxocyclopent-3-en-1-ylidene)-methyl)oxiran-2-yl)butanoic acid] | more potent than EI (19) | reduced secretion | able to drive expression of downstream targets of Nrf2 | potent inhibitor of toll-like receptor 7 (TLR) mediated secretion of pro-inflammatory cytokines | more potent than EI (19) | reduced secretion | able to license splenic dendritic cells to polarize naïve CD4 T cells towards the Th2 subset | potent inhibitor of toll-like receptor 7 (TLR) mediated secretion of pro-inflammatory cytokines |  |  |  |  |  |  |
| CCCCC/C=C\C[C@@H]1/C(=C\[C@H]2O[C@@H]2CCCC(=O)O)C(=O)C[C@H]1O [EI (19), 5,6-epoxyisoprostane E2] | reduced secretion |  |  |  | reduced secretion |  |  |  |  |  |  |  |  |  |
| CCCCC/C=C\C[C@H]1C=CC(=O)/C1=C/[C@@H](O)[C@@H]1CCCC(=O)O1 [cyclo-EC (9), (S)-6-((R,E)-1-Hydroxy-2-((S)-2-((Z)-oct-2-en-1-yl)-5-oxocyclopent-3-en-1-liydene)-ethyl)tetrahydro-2H-pyran-2-one] |  |  |  | most potent inhibitor of IL-6 and IL-12 secretion |  |  |  | most potent inhibitor of IL-6 and IL-12 secretion | induces expression of Nrf2 target genes | attenuates secretion of pro-inflammatory cytokines at lower concentrations than EC | inhibits pro-inflammatory chemokine expression | interferes with high dose antigen induced polarization towards the Th1 subset | licenses the dendritic cells to promote polarization of the Th2 subset | attenuates secretion of pro-inflammatory cytokines at lower concentrations than EC |

Source: patent publication EP2963029A1, “Cyclic derivatives of epoxyisoprostanoids as therapeutic agents” (ETH Zurich, priority 2014, dated 2016)
